This is an account of results in patent US8202879B2, “Quinazoline derivatives having tyrosine kinase inhibitory activity” (Shionogi & Co., Ltd., priority 2005, dated 2012).

The target of one test is T1, HER2 (Homo sapiens, UniProt P04626).
T1 construct: purchased Carna Biosciences, Inc; host or cells: insect cell expression system
Put plainly: Enzyme inhibitory activity on HER2 (time resolution fluorescence, biotinylated poly-Glu-Tyr substrate). It counts as biochemical. The procedure: (§1) Enzyme Inhibitory Activity of Test Compound on EGFR and HER2
(§2) EGFR and HER2 purified from an insect cell expression system, and a biotinylated substrate (synthetic peptide of glutamic acid:tyrosine=4:1) were added to a 384-well plate with ATP added thereto, and an enzyme reaction was performed at room temperature. After completion of the enzyme reaction, an anti-phosphorylated tyrosine antibody labeled with europium and streptavidin labeled with alphycocyanine were added, and a phosphorylated tyrosine residue was quantified by a time resolution fluorescence method.
(§3) A test compound was adjusted to 10 mM using DMSO.
(§4) Further, using 10% DMSO solution, a 1 mM solution was prepared, and this was regarded as a maximum concentration point.
(§5) As a dilution series, a 4-fold dilution series was prepared to a 10 stage.
(§6) As a buffer, TBS containing 10 mM MgCl2, 5 mM MnCl2, 0.2 mM Na3VO4, and 0.1% BSA was used.
(§7) As EGFR and HER2 enzymes, those purified from an insect cell expression system were purchased from Carna Biosciences, Inc.
HER2 kinase was adjusted to 1000 ng/ml using a buffer.
(§8) As a substrate, biotinylated poly-Glu-Tyr (4:1, manufactured by CISbio) was used. A concentration was adjusted to 3.125 μg/ml using the above buffer.
An ATP concentration on study of the HER2 enzyme was adjusted to 290 μM.
(§9) For preparing a detection reagent, TBS containing 30 mM EDTA, 0.8M KF and 0.1% BSA was used.
(§10) An anti-phosphorylated tyrosine antibody labeled with europium, PT-66K (CISbio) was adjusted to 195 ng/ml, and streptavidin labeled with alphycocyanine, SA-XL (CISbio) was adjusted to 5 μg/ml.
(§11) As an assay plate, a 384-well plate was used. Per one well, 1.1 μl of a test compound, 4 μl of a substrate solution, and 4 μl of an enzyme solution were added, and 2 μl of an ATP solution was added to initiate an enzyme reaction. The enzyme reaction was performed at room temperature for 60 minutes, and 10 μl of a detection reagent was added to complete the reaction. One hour after completion of the reaction, time resolution fluorescent measurement was performed.

The next test has as its target T2, EGFR (Homo sapiens, UniProt P00533).
T2 construct: purchased Carna Biosciences, Inc; host or cells: insect cell expression system
Put plainly: Enzyme inhibitory activity on EGFR (time resolution fluorescence, biotinylated poly-Glu-Tyr substrate). Format: biochemical. The procedure: as §1, §2, §3, §4, §5, §6, §7
An EGFR enzyme solution was adjusted to 250 ng/ml using a buffer.
as §8
An ATP concentration on study of the EGFR enzyme was adjusted to 125 μM using the buffer.
as §9, §10, §11

Another test concerns BT-474. Put plainly: In vitro cell proliferation inhibition, WST assay. It counts as cell-based, human. The settings on record: BT-474 cells, cultured for 3 days, read-out: BT-474 (nM) proliferation inhibitory activity (IC50 value). The procedure: Test of In Vitro Cell Proliferation Inhibition of Test Compound
As a human-derived cancer cell strain, BT-474 was used. Cells were all cultured in a 37° C., 5% CO2 incubator in a medium in which 10% bovine fetal serum (ICN) and 50 units ml penicillin/60 μg/ml streptomycin solution (GIBCO) were added to Dulbecco's Modified Essential Medium (DMEM, Nacalai Tesque, Inc).

Setting [1] is: enzyme reaction at room temperature for 60 minutes.
[2] abbreviates: HER2 purified from insect cell expression system, ATP solution 290 μM, room temperature, 60 minutes.
Setting [3] is: EGFR purified from insect cell expression system, ATP solution 125 μM, room temperature, 60 minutes.

Read-outs that look alike come from different tables or passages of the source.

T1 sequence (P04626 23-1255): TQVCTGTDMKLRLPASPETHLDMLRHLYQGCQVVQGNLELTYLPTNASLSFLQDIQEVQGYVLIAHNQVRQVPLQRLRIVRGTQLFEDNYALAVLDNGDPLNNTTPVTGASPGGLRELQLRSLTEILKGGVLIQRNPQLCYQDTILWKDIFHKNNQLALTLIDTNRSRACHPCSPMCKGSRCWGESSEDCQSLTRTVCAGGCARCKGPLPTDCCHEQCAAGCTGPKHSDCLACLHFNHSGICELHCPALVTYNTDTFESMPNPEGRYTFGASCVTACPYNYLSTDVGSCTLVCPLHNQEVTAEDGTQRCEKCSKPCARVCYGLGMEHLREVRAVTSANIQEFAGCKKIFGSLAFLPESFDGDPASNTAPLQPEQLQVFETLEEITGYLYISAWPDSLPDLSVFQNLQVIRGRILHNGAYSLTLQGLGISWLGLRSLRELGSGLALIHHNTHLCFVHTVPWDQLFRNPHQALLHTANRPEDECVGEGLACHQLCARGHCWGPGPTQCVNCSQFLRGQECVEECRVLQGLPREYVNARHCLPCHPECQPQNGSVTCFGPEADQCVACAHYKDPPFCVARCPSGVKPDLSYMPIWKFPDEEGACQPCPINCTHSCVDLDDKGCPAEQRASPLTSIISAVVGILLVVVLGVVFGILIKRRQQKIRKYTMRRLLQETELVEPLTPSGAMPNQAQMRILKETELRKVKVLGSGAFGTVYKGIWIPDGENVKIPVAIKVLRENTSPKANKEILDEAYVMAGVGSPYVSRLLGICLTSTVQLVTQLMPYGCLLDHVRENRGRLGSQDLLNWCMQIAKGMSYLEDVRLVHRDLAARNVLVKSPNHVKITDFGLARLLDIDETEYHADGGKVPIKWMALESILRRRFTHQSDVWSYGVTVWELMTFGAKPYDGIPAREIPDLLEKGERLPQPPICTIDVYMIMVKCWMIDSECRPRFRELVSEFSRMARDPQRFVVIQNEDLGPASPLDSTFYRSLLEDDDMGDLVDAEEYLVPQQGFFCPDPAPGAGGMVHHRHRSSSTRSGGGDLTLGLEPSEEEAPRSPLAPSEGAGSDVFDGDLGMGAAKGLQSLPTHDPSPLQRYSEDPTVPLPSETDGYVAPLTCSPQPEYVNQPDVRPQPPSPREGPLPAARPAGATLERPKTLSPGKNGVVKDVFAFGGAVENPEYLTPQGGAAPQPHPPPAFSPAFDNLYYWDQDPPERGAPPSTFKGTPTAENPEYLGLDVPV
T2 sequence (P00533 25-1210): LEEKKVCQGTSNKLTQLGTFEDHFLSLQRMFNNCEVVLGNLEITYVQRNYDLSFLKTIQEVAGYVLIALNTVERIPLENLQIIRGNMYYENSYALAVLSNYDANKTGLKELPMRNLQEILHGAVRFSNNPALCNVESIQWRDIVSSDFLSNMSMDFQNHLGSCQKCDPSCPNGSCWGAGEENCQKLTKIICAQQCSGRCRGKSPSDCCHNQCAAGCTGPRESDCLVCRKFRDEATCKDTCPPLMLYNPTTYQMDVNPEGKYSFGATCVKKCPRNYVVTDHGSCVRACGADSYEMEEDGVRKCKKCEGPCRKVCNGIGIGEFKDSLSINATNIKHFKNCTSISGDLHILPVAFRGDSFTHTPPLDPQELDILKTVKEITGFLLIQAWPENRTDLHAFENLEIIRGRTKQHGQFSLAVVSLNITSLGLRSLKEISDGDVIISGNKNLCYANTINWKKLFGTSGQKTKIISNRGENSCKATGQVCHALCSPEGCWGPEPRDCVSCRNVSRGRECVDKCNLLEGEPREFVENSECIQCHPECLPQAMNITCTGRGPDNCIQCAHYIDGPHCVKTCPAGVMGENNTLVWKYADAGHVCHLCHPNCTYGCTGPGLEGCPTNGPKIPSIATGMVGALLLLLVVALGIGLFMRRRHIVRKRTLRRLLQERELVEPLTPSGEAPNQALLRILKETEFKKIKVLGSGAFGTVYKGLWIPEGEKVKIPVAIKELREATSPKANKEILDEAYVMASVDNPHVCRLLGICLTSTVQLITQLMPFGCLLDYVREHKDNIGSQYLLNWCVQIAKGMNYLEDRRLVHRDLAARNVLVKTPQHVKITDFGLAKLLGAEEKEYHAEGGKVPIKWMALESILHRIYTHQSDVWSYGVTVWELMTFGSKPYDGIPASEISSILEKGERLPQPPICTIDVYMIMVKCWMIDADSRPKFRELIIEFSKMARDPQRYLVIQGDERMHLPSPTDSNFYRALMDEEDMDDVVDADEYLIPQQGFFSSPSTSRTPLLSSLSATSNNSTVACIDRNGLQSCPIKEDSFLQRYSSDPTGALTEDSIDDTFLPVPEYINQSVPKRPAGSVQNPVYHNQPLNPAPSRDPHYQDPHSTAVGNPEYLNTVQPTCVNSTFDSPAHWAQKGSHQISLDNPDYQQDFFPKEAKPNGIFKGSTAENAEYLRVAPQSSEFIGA

For `CC#CC(=NOCC1CNCCN1)c1ccc2ncnc(Nc3ccc4c(cnn4Cc4cccc(F)c4)c3)c2c1` (stereo not shown) [VIII-198], the IC50 was found to be 4.6 nM on HER2 (setting [1]); 3.6 nM at EGFR (setting [1]); 10 nM with BT-474 (Homo sapiens, BT-474, 72 h).
Regarding `CC#C/C(=N\OC[C@@H]1CCCN1)c1ccc2ncnc(Nc3ccc(OCc4cccc(F)c4)c(Cl)c3)c2c1` [VIII-72], the IC50 is 11 nM against HER2 (setting [2]), 6.3 nM at EGFR (setting [3]) and 21 nM with BT-474.
The corresponding values for `CC#C/C(=N\OC[C@H]1NCCO[C@@H]1C)c1ccc2ncnc(Nc3ccc(OCc4cccc(F)c4)c(Cl)c3)c2c1` [VIII-107] are 135 nM, 150 nM and 23 nM.
`CC#C/C(=N\OC[C@H]1CN(C)CCN1)c1ccc2ncnc(Nc3ccc(OCc4cccc(F)c4)c(Cl)c3)c2c1` [VIII-113]: the IC50 was found to be 12 nM on HER2 (setting [2]); 9.7 nM against EGFR (setting [3]); 13 nM with BT-474 (Homo sapiens, BT-474, 72 h).
Consider `CC#C/C(=N\OCCNC[C@@H]1COC(=O)N1)c1ccc2ncnc(Nc3ccc4c(cnn4Cc4cccc(F)c4)c3)c2c1` [VIII-191], for which the IC50 on HER2 (setting [1]) worked out at 42 nM; on EGFR (setting [1]), 17 nM; with BT-474 (Homo sapiens, BT-474, 72 h), 33 nM.
The corresponding values for `CC#C/C(=N\OCCNCCOC(N)=O)c1ccc2ncnc(Nc3ccc(OCc4ccccn4)c(Cl)c3)c2c1` [VIII-135] are 8.1 nM, 7.6 nM and 28 nM.
On to `CC#C/C(=N\OC[C@H]1CN(CCO)CCN1)c1ccc2ncnc(Nc3ccc(OCc4cccc(F)c4)c(Cl)c3)c2c1` [VIII-112], for which the results for the IC50 on HER2 (setting [2]), against EGFR (setting [3]) and with BT-474 were 13 nM, 11 nM and 8 nM, respectively.
The corresponding values for `CC#C/C(=N\OC[C@@H]1CCCN1C)c1ccc2ncnc(Nc3ccc(OCc4cccc(F)c4)c(Cl)c3)c2c1` [VIII-75] are 34 nM, 50 nM and 22 nM.
Turning to `CC#C/C(=N\OC[C@@H]1CCC(=O)N1)c1ccc2ncnc(Nc3ccc(OCc4cccc(F)c4)c(Cl)c3)c2c1` [VIII-83], the IC50 at HER2 (setting [2]) was 121 nM; at EGFR (setting [3]) it was 164 nM; in the test on BT-474 it was 13 nM.
Regarding `CC#C/C(=N\OCCNC)c1ccc2ncnc(Nc3ccc(OCc4cccnc4)c(Cl)c3)c2c1` [VIII-216], the IC50 is 7 nM against HER2 (setting [1]); 22 nM against EGFR (setting [1]); 32 nM with BT-474 (Homo sapiens, BT-474, 72 h).
With `CC#C/C(=N\OCCN1CCNC(=O)C1)c1ccc2ncnc(Nc3ccc4c(cnn4Cc4cccc(F)c4)c3)c2c1` [VIII-196], the IC50 against HER2 (setting [1]) came to 20 nM; against EGFR (setting [1]) it was 11 nM; in the test on BT-474 (Homo sapiens, BT-474, 72 h), 28 nM.
Regarding `CC#C/C(=N\OCCN1CCN(C)CC1)c1ccc2ncnc(Nc3ccc(OCc4cccc(F)c4)c(Cl)c3)c2c1` [VIII-96], the IC50 was 20 nM against HER2 (setting [2]), 20 nM on EGFR (setting [3]) and 30 nM with BT-474.
Take `CC#C/C(=N\OC[C@H]1CNC[C@@H](C)O1)c1ccc2ncnc(Nc3ccc(OCc4ccccn4)c(Cl)c3)c2c1` [VIII-177]: the IC50 against HER2 (setting [1]) stood at 5.8 nM; on EGFR (setting [1]) it was 7.3 nM; in the test with BT-474 (Homo sapiens, BT-474, 72 h) it was 79 nM.
In the case of `CC#CC(=NOCC(C)N)c1ccc2ncnc(Nc3ccc(OCc4cccc(F)c4)c(Cl)c3)c2c1` (stereo not shown) [VIII-40], the IC50 against HER2 (setting [2]) stood at 19.2 nM; against EGFR (setting [3]), 9.3 nM; in the test on BT-474, 9 nM.
For the molecule `C=CC(=O)N1CCN(CCON=Cc2ccc3ncnc(Nc4ccc(OCc5cccc(F)c5)c(Cl)c4)c3c2)CC1` [Compound V-43, 4-(3-chloro-4-(3-fluorobenzyloxy)phenylamino)-6-(2-(4-acryloyl-1-piperazin-1-yl)ethoxyimino)methylquinazoline], the IC50 on HER2 (setting [2]) is 151 nM; at EGFR (setting [3]), 186 nM; in the test on BT-474 (Homo sapiens, BT-474, 72 h) it was 71 nM.
For `CC#C/C(=N\OCCNC1CCN(C(C)=O)CC1)c1ccc2ncnc(Nc3ccc(OCc4cccc(F)c4)c(Cl)c3)c2c1` [VIII-61], the IC50 against HER2 (setting [2]) stood at 24 nM; against EGFR (setting [3]), 30 nM; with BT-474, 11 nM.
For `CC#C/C(=N\OC[C@H]1CNCCN1)c1ccc2ncnc(Nc3ccc(OCc4cccc(F)c4)c(Cl)c3)c2c1` [VIII-105] the same measures were 14 nM, 14 nM and 10 nM.
`CC#CC(=NOCC1CN(C)CCN1C)c1ccc2ncnc(Nc3ccc(OCc4cccc(F)c4)c(Cl)c3)c2c1` (stereo not shown) [VIII-108]: the IC50 at HER2 (setting [2]) was 56 nM; on EGFR (setting [3]), 53 nM; in the test on BT-474 (Homo sapiens, BT-474, 72 h), 31 nM.
Regarding `CC#C/C(=N\OC[C@H]1CNCCO1)c1ccc2ncnc(Nc3ccc(OCc4ccccn4)c(Cl)c3)c2c1` [VIII-173], the IC50 at HER2 (setting [1]) came to 3.9 nM; on EGFR (setting [1]) it was 4.8 nM; with BT-474 (Homo sapiens, BT-474, 72 h), 40 nM.
On to `CN(/N=C/c1ccc2ncnc(Nc3ccc(OCc4cccc(F)c4)c(Cl)c3)c2c1)c1ccccc1` [IX-8], for which the IC50 came to 549 nM against HER2 (setting [1]) and 426 nM against EGFR (setting [1]).
Take `CC#C/C(=N\OC[C@H]1NC(=O)O[C@@H]1C)c1ccc2ncnc(Nc3ccc(OCc4cccc(F)c4)c(Cl)c3)c2c1` [VIII-76]: the IC50 at HER2 (setting [2]) worked out at 216 nM; at EGFR (setting [3]), 162 nM; in the test with BT-474 (Homo sapiens, BT-474, 72 h), 12 nM.
The corresponding values for `CC#CC(=NOCCNC(=NC#N)NC)c1ccc2ncnc(Nc3ccc(OCc4cccc(F)c4)c(Cl)c3)c2c1` [VIII-58] are 236 nM, 207 nM and 37 nM.
On to `CC#CC(=NOCCN1CCC(NC(C)=O)C1)c1ccc2ncnc(Nc3ccc(OCc4cccc(F)c4)c(Cl)c3)c2c1` (stereo not shown) [VIII-70], for which the IC50 on HER2 (setting [2]) turned out to be 31 nM; on EGFR (setting [3]), 63 nM; with BT-474 it was 7 nM.
As for `CC#C/C(=N\OCCNC[C@H]1CCC(=O)N1)c1ccc2ncnc(Nc3ccc4c(cnn4Cc4cccc(F)c4)c3)c2c1` [VIII-190], the IC50 is 11.1 nM on HER2 (setting [1]); 8.9 nM against EGFR (setting [1]); 14 nM in the test with BT-474 (Homo sapiens, BT-474, 72 h).
The corresponding values for `CC#C/C(=N\OCCNC)c1ccc2ncnc(Nc3ccc(Sc4ccccc4)cc3)c2c1` [VIII-213] are 25 nM, 18 nM and 33 nM.
The corresponding values for `CC#C/C(=N\OCCNC)c1ccc2ncnc(Nc3ccc4c(cnn4Cc4cccc(F)c4)c3)c2c1` [VIII-183] are 8.3 nM, 7.1 nM and 10 nM.
In the case of `COC[C@@H]1CCCN1/N=C/c1ccc2ncnc(Nc3ccc(OCc4cccc(F)c4)c(Cl)c3)c2c1` [IX-6], the IC50 at HER2 (setting [1]) came out at 326 nM; against EGFR (setting [1]) it was 344 nM.
Regarding `CC#C/C(=N\OC[C@@H]1C[C@H](O)CN1)c1ccc2ncnc(Nc3ccc4c(cnn4Cc4cccc(F)c4)c3)c2c1` [VIII-200], the IC50 in the test on BT-474 came out at 8 nM.
For the molecule `CC#C/C(=N\OCCN(C)CCOC)c1ccc2ncnc(Nc3ccc(OCc4cccc(F)c4)c(Cl)c3)c2c1` [VIII-64], the IC50 against EGFR (setting [3]) came out at 52 nM; with BT-474 (Homo sapiens, BT-474, 72 h), 22 nM.
Turning to `Fc1cccc(COc2ccc(Nc3ncnc4ccc(/C=N/N5CCCCC5)cc34)cc2Cl)c1` [IX-4], the values for the IC50 at HER2 (setting [1]) and on EGFR (setting [1]) were 334 nM and 193 nM, respectively.
For the molecule `Fc1cccc(COc2ccc(Nc3ncnc4ccc(C=NN5CCCC5)cc34)cc2Cl)c1` [IX-1, 4-(3-chloro-4-(3-fluorobenzyloxy)phenylamino)-6-(pyrrolidin-1-yliminomethyl)quinazoline], the IC50 against HER2 (setting [1]) stood at 203 nM; on EGFR (setting [1]), 138 nM.
Take `CC/C(=N\OCCNCCS(C)(=O)=O)c1ccc2ncnc(Nc3ccc(OCc4cccc(F)c4)c(Cl)c3)c2c1` [VIII-19]: the IC50 against HER2 (setting [2]) worked out at 115 nM; on EGFR (setting [3]), 89 nM.
